Results from US9981963B2, “3-(1H-pyrazol-4-yl)-1H-pyrrolo[2,3-c]pyridine derivatives as NIK inhibitors” (Janssen Pharmaceutica NV, priority 2013, dated 2018).

Key:
[1] = biological target: T1, Recombinant Human NF-kappaB-inducing Kinase (NIK/MAP3K14) (Homo sapiens (Human), UniProt Q99558); test: Biological Assay A2: inhibition of auto-phosphorylation of recombinant human NIK/MAP3K14 (AlphaScreen); assay type: biochemical; conditions: 25 microM ATP, 0.2 nM GST-tagged NIK/MAP3K14, 1 h at 25° C., averaged values, read-out: Alpha-Screen IC50
T1 sequence (Q99558 whole entry): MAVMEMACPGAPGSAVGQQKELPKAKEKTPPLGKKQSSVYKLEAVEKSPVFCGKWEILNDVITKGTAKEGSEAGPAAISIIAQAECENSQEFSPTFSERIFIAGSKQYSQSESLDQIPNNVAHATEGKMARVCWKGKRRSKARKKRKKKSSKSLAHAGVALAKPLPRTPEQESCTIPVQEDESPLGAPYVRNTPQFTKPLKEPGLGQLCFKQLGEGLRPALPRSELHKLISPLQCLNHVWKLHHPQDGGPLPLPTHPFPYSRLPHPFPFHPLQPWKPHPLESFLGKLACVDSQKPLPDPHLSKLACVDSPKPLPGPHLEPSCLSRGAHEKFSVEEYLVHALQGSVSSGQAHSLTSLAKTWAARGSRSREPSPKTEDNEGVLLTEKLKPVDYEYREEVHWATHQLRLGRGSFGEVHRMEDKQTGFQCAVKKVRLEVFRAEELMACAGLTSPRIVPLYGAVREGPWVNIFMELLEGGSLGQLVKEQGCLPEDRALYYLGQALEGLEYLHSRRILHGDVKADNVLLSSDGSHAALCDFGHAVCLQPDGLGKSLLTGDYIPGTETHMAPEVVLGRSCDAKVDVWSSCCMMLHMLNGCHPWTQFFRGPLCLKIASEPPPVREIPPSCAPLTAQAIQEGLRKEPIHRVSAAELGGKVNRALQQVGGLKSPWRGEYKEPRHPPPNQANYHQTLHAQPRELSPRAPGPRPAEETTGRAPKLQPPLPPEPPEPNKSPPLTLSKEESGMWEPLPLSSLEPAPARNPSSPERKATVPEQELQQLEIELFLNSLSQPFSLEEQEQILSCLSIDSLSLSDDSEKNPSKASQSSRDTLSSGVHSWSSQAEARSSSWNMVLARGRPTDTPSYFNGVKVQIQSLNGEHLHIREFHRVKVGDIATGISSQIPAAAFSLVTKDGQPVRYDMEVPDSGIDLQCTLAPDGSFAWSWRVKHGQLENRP
Method: Inhibition of Auto-phosphorylation of Recombinant Human NF-kappaB-inducing Kinase (NIK/MAP3K14) Activity (AlphaScreen®)
NIK/MAP3K14 auto-phosphorylation activity was measured using the AlphaScreen® (αscreen) format (Perkin Elmer). All compounds tested were dissolved in dimethyl sulfoxide (DMSO) and further dilutions were made in assay buffer. Final DMSO concentration was 1% (v/v) in assays. Assay buffer was 50 mM Tris pH 7.5 containing 1 mM EGTA (ethylene glycol tetraacetic acid), 1 mM DTT (dithiothreitol), 0.1 mM Na3VO4, 5 mM MgCl2, 0.01% Tween® 20. Assays were carried out in 384 well Alphaplates (Perkin Elmer). Incubations consisted of compound, 25 microM Adenosine-5′-triphosphate (ATP), and 0.2 nM NIK/MAP3K14. Incubations were initiated by addition of GST-tagged NIK/MAP3K14 enzyme, carried out for 1 h at 25° C. and terminated by addition of stop buffer containing anti-phospho-IKK Ser176/180 antibody. Protein A Acceptor and Glutathione-Donor beads were added before reading using an EnVision® Multilabel Plate Reader (Perkin Elmer). Signal obtained in the wells containing blank samples was subtracted from all other wells and IC50's were determined by fitting a sigmoidal curve to % inhibition of control versus Log10 compound concentration.

[2] = biological target: T1, Recombinant Human NF-kappaB-inducing Kinase (NIK/MAP3K14); test: Biological Assay A: inhibition of recombinant human NIK/MAP3K14 activity (MSD, MBP substrate); conditions: 25 μM ATP, 10 nM NIK/MAP3K14, 1 h at 25° C.; averaged over all measurements on all batches; read-out: Biochemical (MSD MBP) IC50
Method: Inhibition of Recombinant Human NF-kappaB-inducing Kinase (NIK/MAP3K14) Activity
Assay buffer was 50 mM Tris pH 7.5 containing 1 mM EGTA (ethylene glycol tetraacetic acid), 1 mM DTT (dithiothreitol), 0.1 mM Na3VO4, 5 mM MgCl2, 0.01% Tween® 20. Assays were carried out in 384 well Mesoscale high binding plates which had been coated with myelin basic protein (MBP) and blocked with bovine serum albumin to prevent non-specific protein binding. All compounds tested were dissolved in dimethyl sulfoxide (DMSO) and further dilutions were made in assay buffer. Final DMSO concentration was 1% (v/v) in assays. Incubations consisted of compound (1% DMSO in control and blank wells), 25 μM Adenosine-5′-triphosphate (ATP), and 10 nM NIK/MAP3K14 substituting enzyme with buffer in the blank wells. Incubations were carried out for 1 h at 25° C. and were followed by washing and sequential incubation with rabbit anti-phospho-MBP and anti-rabbit Ig Sulfotag antibody before reading bound Sulfotag on a Mesoscale Discovery. Signal obtained in the wells containing blank samples was subtracted from all other wells and IC50's were determined by fitting a sigmoidal curve to % inhibition of control versus Log10 compound concentration.

[3] = system: P-IKKα levels in L363 cells; test: Biological Assay B: effect of compounds on P-IKKα levels in L363 cells; assay type: cell-based; conditions: Homo sapiens, L-363; L363 cells with BAFF, 2 hr treatment; averaged values; read-out: IKKα Cellular IC50
Method: Effect of Compounds on P-IKKα Levels in L363 Cells
All compounds tested were dissolved in DMSO and further dilutions were made in culture medium. Final DMSO concentration was 1% (v/v) in cell assays. The human L363 cells (ATCC) were cultured in RPMI 1640 medium supplemented with GlutaMax and 10% fetal calf serum (PAA). Cells were routinely maintained at densities of 0.2×10^6 cells per ml-1×10^6 cells per ml at 37° C. in a humidified 5% CO2 atmosphere. Cells were passaged twice a week splitting back to obtain the low density. Cells were seeded in 96 well plates (Nunc 167008) at 2×10^6 per ml media in a volume of 75 μl per well plus 25 μl 1 μg/ml recombinant human B-cell activating factor (BAFF/BLyS/TNFSF13B). Seeded cells were incubated at 37° C. in a humidified 5% CO2 atmosphere for 24 hr. Drugs and/or solvents were added (20 μl) to a final volume of 120 μl. Following 2 hr treatment plates were removed from the incubator and cell lysis was achieved by the addition of 30 μl 5× lysis buffer followed by shaking on a plate shaker at 4° C. for 10 min. At the end of this incubation lysed cells were centrifuged at 800×g for 20 min at 4° C. and the lysate was assessed for P-IKKα levels by sandwich immuno-assay carried out in anti-rabbit antibody coated Mesoscale plates. Within an experiment, the results for each treatment were the mean of 2 replicate wells. For initial screening purposes, compounds were tested using an 8 point dilution curve (serial 1:3 dilutions). For each experiment, controls (containing MG132 and BAFF but no test drug) and a blank incubation (containing MG132 and BAFF and 10 μM ADS125117, a test concentration known to give full inhibition) were run in parallel. The blank incubation value was subtracted from all control and sample values. To determine the IC50 a sigmoidal curve was fitted to the plot of % inhibition of control P-IKKα levels versus Log10 compound concentration.

[4] = system: LP-1 cells; test: Biological Assay C: antiproliferative activity on LP-1 cells (CellTiter-Glo); assay type: cell-based; conditions: Homo sapiens, 72 hr of treatment, averaged values
Method: (§1) Determination of Antiproliferative Activity on LP-1, L-363 and JJN-3 Cells
(§2) All compounds tested were dissolved in DMSO and further dilutions were made in culture medium. Final DMSO concentration was 0.3% (v/v) in cell proliferation assays. Viability was assessed using CellTiter-Glo cell viability assay kit (Promega). The human LP-1, L-363 and JJN-3 cells (DSMZ) were cultured in RPMI 1640 medium supplemented with 2 mM L-glutamine, and 10% fetal calf serum (PAA). Cells were routinely kept as suspension cells at 37° C. in a humidified 5% CO2 atmosphere. Cells were passaged at a seeding density of 0.2×10^6/ml twice a week. Cells were seeded in black tissue culture treated 96-well plates (Perkin Elmer). Densities used for plating ranged from 2,000 to 6,000 cells per well in a total volume of 75 μl medium. After twenty four hours, drugs and/or solvents were added (25 μl) to a final volume of 100 μl. Following 72 hr of treatment plates were removed from the incubator and allowed to equilibrate to room temperature for approx 10 min. 100 μl CellTiter-Glo reagent was added to each well that was then covered (Perkin Elmer Topseal) and shaken on plate shaker for 10 min. Luminescence was measured on a HTS Topcount (Perkin Elmer). Within an experiment, the results for each treatment were the mean of 2 replicate wells. For initial screening purposes, compounds were tested using a 9 point dilution curve (serial 1:3 dilutions). For each experiment, controls (containing no drug) and a blank incubation (containing cells read at the time of compound addition) were run in parallel. The blank value was subtracted from all control and sample values. For each sample, the mean value for cell growth (in relative light units) was expressed as a percentage of the mean value for cell growth of the control.

[5] = system: JJN-3 cells; test: Biological Assay C: antiproliferative activity on JJN-3 cells (CellTiter-Glo); assay type: cell-based; conditions: Homo sapiens, 72 hr of treatment, averaged values
Method: as §1, §2

[6] = system: L-363 cells; test: Biological Assay C: antiproliferative activity on L-363 cells (CellTiter-Glo); assay type: cell-based; conditions: Homo sapiens, 72 hr of treatment, averaged values
Method: as §1, §2

SMILES	IC50 [1] [nM]	IC50 [2] [nM]	IC50 [3] [nM]	EC50 [4] [µM]	EC50 [5] [nM]	EC50 [6] [µM]
CC(C)(O)C#Cc1cc2c(-c3cn[nH]c3)cn(CC3CCOC3)c2cn1 (stereo not drawn) [Compound 2]	83	129	829	21.3	3950	4.34
CCn1cc(-c2c[nH]nc2N)c2cc(C#CC(C)(C)O)ncc21 [Compound 3]	28	58	173	7.24	2370	4.04
Cn1cc(-c2cn[nH]c2)c2cc(C#CC(C)(C)O)ncc21 [Compound 4]	11	28	210	4.72	1150	1.03
OC1(C#Cc2cc3c(-c4cn[nH]c4)c[nH]c3cn2)CCCC1 [Compound 6]	26	19	1120	> 30	6880	10.7
CC(O)(C#Cc1cc2c(-c3cn[nH]c3)c[nH]c2cn1)c1nccs1 (stereo not drawn) [Compound 7]	9	9	882	> 30	> 30000	5.39
CCn1cc(-c2cn[nH]c2)c2cc(C#CC3(O)CCCC3)ncc21 [Compound 10]	23	9	113	5.07	1210	3.18
CC(C)n1cc(-c2cn[nH]c2)c2cc(C#CC(C)(C)O)ncc21 [Compound 11]	21	6	20	0.916	258	0.283
CC(C)(O)C#Cc1cc2c(-c3cn[nH]c3)cn(CCO)c2cn1 [Compound 12]	22	47	185	8.5	1500	2.45
CC(C)(O)Cn1cc(-c2cn[nH]c2)c2cc(C#CC(C)(O)c3nccs3)ncc21 (stereo not drawn) [Compound 15]	43	10	47	> 30	3850	> 30
COCCn1cc(-c2cn[nH]c2)c2cc(C#CC(C)(C)O)ncc21 [Compound 16]	99	92	523	20.4	4050	3.14
CC(C)(O)C#Cc1cc2c(-c3cn[nH]c3)cn(CC3COC3)c2cn1 [Compound 17]	69	88	418	> 30	5860	11.9

Now from value to compound, other results behind:

IC50 [1] [nM]	IC50 [2] [nM]	IC50 [3] [nM]	SMILES	EC50 [4] [µM]	EC50 [5] [nM]	EC50 [6] [µM]
14	16	71	CC(C)(O)C#Cc1cc2c(-c3cn[nH]c3)cn(CCCO)c2cn1 [Compound 5]	18.8	1200	0.791
7	21	406	Cn1cc(-c2cn[nH]c2)c2cc(C#CC3(O)CCCC3)ncc21 [Compound 8]	9.54	3330	5.86
17	14	242	OCCn1cc(-c2cn[nH]c2)c2cc(C#CC3(O)CCCC3)ncc21 [Compound 13]	> 30	23800	11
108	18	132	CC(C)(O)C#Cc1cc2c(-c3cn[nH]c3)cn(CC(C)(C)O)c2cn1 [Compound 14]	12.1	1400	1.33
41	45	167	COCCCn1cc(-c2cn[nH]c2)c2cc(C#CC(C)(C)O)ncc21 [Compound 18]	6.82	1870	2.54
98	65	602	CN1CCC(n2cc(-c3cn[nH]c3)c3cc(C#CC(C)(C)O)ncc32)CC1 [Compound 19]	11.6	704	0.57
